Patent US20030130799A1, “Structure/properties correlation with membrane affinity profile” (priority 2001, published 2003)
Where two headings read alike, the source gives them in different places.

Assays:
[1] = IAM chromatography membrane affinity (κ′) on esterIAM.PE C10/C3 column; conditions: for LOG PE (log κ′ on esterIAM.PE C10/C3): 15% acetonitrile in 0.01M PBS buffer (pH 7.4) mobile phase
[2] = Prediction of clearance from IAM membrane affinity standard curve; set-up: species or system human; conditions: Table 4; predicted using IAM k′ data
[3] = cited from earlier work; for Vd Observed: Table 2, 70-kg patient assumed; for Volume of Distribution (Ref.) category in brackets: class of the reference value
[4] = IAM chromatography membrane affinity (κ′) on esterIAM.PS C10/C3 column; conditions: for Log PS (log κ′ on esterIAM.PS C10/C3): 15% acetonitrile in 0.01M PBS buffer (pH 7.4) mobile phase
plasma proteins [5] = conditions: cited from earlier work; for Protein Binding Observed: Table 3
[6] = cited from earlier work; for total body clearance Observed: Table 4; for Clearance (Ref.): Table 5, Study 1, category
plasma proteins [7] = test: Prediction of protein binding from IAM membrane affinity standard curve; set-up: species or system human; conditions: Table 3; predicted using IAM k′ data (FIG. 20)
[8] = Prediction of volume of distribution from IAM membrane affinity standard curve; conditions: Table 2; predicted using IAM k′ data (FIG. 19)
[9] = known ADME properties of the parent compound
[10] = column volumes of mobile phase needed to elute

SMILES: Nc1nc2c(ncn2COCCO)c(=O)[nH]1 [Acyclovir]
- LOG PE (log κ′ on esterIAM.PE C10/C3) [1]: −1.17

SMILES: COc1ccc([C@@H]2Sc3ccccc3N(CCN(C)C)C(=O)[C@@H]2OC(C)=O)cc1 [Diltiazem]
- total body clearance Predicted [2]: HIGH > 0.327 (HIGH > 0.327)
- Vd Observed [3]: 217 L
- Log PS (log κ′ on esterIAM.PS C10/C3) [4]: 2.54
- LOG PE (log κ′ on esterIAM.PE C10/C3) [1]: 1.87
- Protein Binding Observed (plasma proteins [5]): 78
- total body clearance Observed [6]: 0.84

SMILES: Nc1nnc(-c2cccc(Cl)c2Cl)c(N)n1 [Lamotrigine]
- total body clearance Predicted [2]: LOW < 0.327 (LOW < 0.327)
- Vd Observed [3]: 91 L
- Log PS (log κ′ on esterIAM.PS C10/C3) [4]: 0.96
- Protein Binding Observed (plasma proteins [5]): 55

SMILES: Fc1ccc([C@@H]2CCNC[C@H]2COc2ccc3c(c2)OCO3)cc1 [Paroxetine]
- total body clearance Predicted [2]: HIGH > 0.327 (HIGH > 0.327)
- Vd Observed [3]: 1190 L
- Log PS (log κ′ on esterIAM.PS C10/C3) [4]: 3.37
- Protein Binding Predicted (plasma proteins [7]): Greater than 90
- LOG PE (log κ′ on esterIAM.PE C10/C3) [1]: 2.33
- Protein Binding Observed (plasma proteins [5]): 95
- total body clearance Observed [6]: 0.602

SMILES: CNC(=C[N+](=O)[O-])NCCSCc1ccc(CN(C)C)o1 [Ranitidine]
- Vd Observed [3]: 91 L
- Log PS (log κ′ on esterIAM.PS C10/C3) [4]: 0.83
- LOG PE (log κ′ on esterIAM.PE C10/C3) [1]: 0.15
- Protein Binding Observed (plasma proteins [5]): 15

SMILES: CCCN(CCC)CCc1cccc2c1CC(=O)N2 [Ropinirole]
- total body clearance Predicted [2]: HIGH > 0.327 (HIGH > 0.327)
- Vd Observed [3]: 525 L
- Vd Predicted [8]: VERY HIGH (>250 L) (VERY HIGH (>250 L))
- Protein Binding Predicted (plasma proteins [7]): 40-90
- Protein Binding Observed (plasma proteins [5]): 68

SMILES: CCCC(=O)Nc1ccc(OCC(O)CNC(C)C)c(C(C)=O)c1 (stereo not shown) [acebutolol]
- Volume of Distribution (L) (Ref.) ([3]; Table 6, Study 2): 84 L

SMILES: O=C1CN=C(c2ccccc2Cl)c2cc([N+](=O)[O-])ccc2N1 [clonazepam]
- Volume of Distribution (L) (Ref.) ([3]; Table 5, Study 1): 210 L
- Vd [3, 9]: 224 L
- % Protein Binding (Ref.) (plasma proteins [5]; Table 5, Study 1): 86%
- Protein binding (plasma proteins [5]; [9]): 86%
- Clearance (Ref.) [6]: low
- CL [6, 9]: 0.109 L/min

SMILES: O=C(NCC1CCCCN1)c1cc(OCC(F)(F)F)ccc1OCC(F)(F)F (stereo not shown) [flucainide]
- Volume of Distribution (L) (Ref.) ([3]; Table 6, Study 2): 343 L
- % Protein Binding (Ref.) (plasma proteins [5]; Table 6, Study 2): 61%

SMILES: CN1C(=O)CN=C(c2ccccc2F)c2cc([N+](=O)[O-])ccc21 [flunitrazepam]
- % Protein Binding (Ref.) (plasma proteins [5]; Table 5, Study 1): 77%

SMILES: CNCCC(Oc1ccc(C(F)(F)F)cc1)c1ccccc1 (stereo not shown) [fluoxetine]
- Volume of Distribution (L) (Ref.) ([3]; Table 6, Study 2): 2450 L
- % Protein Binding (Ref.) (plasma proteins [5]; Table 6, Study 2): 94%

SMILES: CC(CCc1ccccc1)NCC(O)c1ccc(O)c(C(N)=O)c1 (stereo not shown) [labetalol]
- % Protein Binding (Ref.) (plasma proteins [5]; Table 6, Study 2): 50%

SMILES: O=C1Nc2ccc(Cl)cc2C(c2ccccc2Cl)=NC1O (stereo not shown) [lorazepam]
- Volume of Distribution (L) (Ref.) ([3]; Table 5, Study 1): 91 L
- Volume of Distribution (Ref.) category in brackets ([3]; Table 5, Study 1): (high) (“high” (70-250 L))
- Clearance (Ref.) [6]: low

SMILES: COCCc1ccc(OCC(O)CNC(C)C)cc1 (stereo not shown) [metoprolol]
- Volume of Distribution (L) (Ref.) ([3]; Table 6, Study 2): 294 L

SMILES: Cc1cccc(C)c1OCC(C)N (stereo not shown) [mexiletine]
- Volume of Distribution (L) (Ref.) ([3]; Table 6, Study 2): 343 L
- % Protein Binding (Ref.) (plasma proteins [5]; Table 6, Study 2): 63%

SMILES: CC(C)(C)NCC(O)COc1cccc2c1CC(O)C(O)C2 (stereo not shown) [nadolol]
- Volume of Distribution (L) (Ref.) ([3]; Table 6, Study 2): 133 L
- % Protein Binding (Ref.) (plasma proteins [5]; Table 6, Study 2): 20%

SMILES: O=C1CN=C(c2ccccc2)c2cc([N+](=O)[O-])ccc2N1 [nitrazepam]
- Volume of Distribution (L) (Ref.) ([3]; Table 5, Study 1): 133 L
- Volume of Distribution (Ref.) category in brackets ([3]; Table 5, Study 1): (high) (“high” (70-250 L))
- Clearance (Ref.) [6]: low

SMILES: CCCCC1C(=O)N(c2ccccc2)N(c2ccccc2)C1=O [phenylbutazone]
- Volume of Distribution (L) (Ref.) ([3]; Table 6, Study 2): 7 L

SMILES: CC(C)NCC(O)COc1cccc2ccccc12 (stereo not shown) [propranolol]
- Volume of Distribution (L) (Ref.) ([3]; Table 6, Study 2): 301 L

SMILES: CC(C)(C)NCC(O)c1cc(O)cc(O)c1 (stereo not shown) [terbutaline]
- Volume of Distribution (L) (Ref.) ([3]; Table 6, Study 2): 126 L
- % Protein Binding (Ref.) (plasma proteins [5]; Table 6, Study 2): 20%

SMILES: COc1cc(Cc2cnc(N)nc2N)cc(OC)c1OC [trimethoprim]
- κ′ on the esterIAM.PS C10/C3 column [4, 10]: 10
- affinity for the esterIAM.PS C10/C3 column compared to the esterIAM.PE column ([4]; ratio of κ′ PS / κ′ PE): ~5 times
- κ′ on the esterIAM.PE C10/C3 column [1, 10]: 2
